Broadly, the IC50 is the concentration that gives 50% inhibition.

Common to all, as to format: cell-based
Assay [1] addresses human EGFR exon 20 insertion ASV (V769_D770insASV) (Homo sapiens (Human), UniProt P00533, INS769ASV). The assay is described as follows: Ba/F3-EGFR-Exon20-ASV cell anti-proliferative assay (CellTiter 96 MTS, 72 h).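 Also: Ba/F3 cells bearing the EGFR exon 20 ASV insertion, a line able to proliferate without IL-3.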 The conditions noted are these: Ba/F3-EGFR-Exon20-ASV cells.
Assay [2] addresses human EGFR exon 20 insertion NPG (H773_V774insNPG) (Homo sapiens, UniProt P00533, INS773NPG, cells depend on it). The assay is described as follows: Ba/F3-EGFR-Exon20-NPG cell anti-proliferative assay (CellTiter 96 MTS, 72 h). The note with it: read-out: EGFR exon 20 NPG insertion IC50.
For assay [3], the target named is human EGFR E746-A750 deletion and T790M Mutation (DT) (Homo sapiens (Human), UniProt P00533, DEL746-750/T790M). The assay is described as follows: Ba/F3-EGFR-Del/T790M cell anti-proliferative assay (CellTiter 96 MTS, 72 h). The note with it: Ba/F3-EGFR-Del/T790M cells; read-out: EGFR exon 19 deletion and T790M mutation IC50.
Description: An expression vector, pLVX-IRES puro (Clontech) coding for human EGFR E746-A750 deletion and T790M Mutation, was transfected into HEK293 cells by the Trans-Lentiviral ORF Packaging System (Thermo Scientific), to produce virus encoding EGFR exon 19 deletion and T790M mutations. […] Ba/F3 cells expressing EGFR E746-A750 deletion and T790M Mutation (named Ba/F3-EGFR-Del/T790M) can proliferate in the absence of IL-3. The anti-proliferative activity of compounds was determined as follows: BaF3-EGFR-Del/T790M cells seeded in 96 well plates (2500 cells/well) were treated with test compound (dissolved in DMSO) at a series of concentrations (4-fold dilution, top concentration: 10,000 nM). The plates were incubated for 72 h in a 37° C. incubator with 5% CO2, and the number of viable cells in each well were measured indirectly by CellTiter 96® Aqueous One Solution Cell Proliferation Assay (Promega; this assay is a colorimetric method for determining the number of viable cells through measurement of their metabolic activity by detection of enzymatic conversion of tetrazolium salts into blue formazan derivatives). Reagent (20 μL) was added into each well, and the plates were returned to the incubator for 2 h. The absorbance in each well was then measured at 490 nm using an Envision plate reader (Perkin Elmer).
The target in assay [4] is Her2 exon 20 YVMA insertion (A775_G776ins YVMA) (Homo sapiens (Human), UniProt P04626, INS775YVMA). The assay is described as follows: Ba/F3-Her2 Exon20 YVMA cell anti-proliferative assay (CellTiter 96 MTS, 72 h). The conditions noted are these: Ba/F3-Her2 Exon20 YVMA cells. The text has this:
Ba/F3 cells expressing Her2 Exon20 YVMA insertions (named Ba/F3-Her2 Exon20 YVMA) can proliferate in the absence of IL-3.

Assay [5] deals with human EGFR L858R and T790M double mutation (LT) (Homo sapiens (Human), UniProt P00533, L858R/T790M). Put plainly: Ba/F3-EGFR L858R/T790M cell anti-proliferative assay (CellTiter 96 MTS, 72 h).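 Also: Ba/F3 cells carrying the EGFR L858R/T790M double mutant are able to grow without IL-3.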 The conditions noted are these: Ba/F3-EGFR L858R/T790M cells; read-out: EGFR exon 21 L858R and T790M mutation IC50.
Chain of human EGFR L858R and T790M double mutation (LT) (P00533 25-1210 T790M/L858R): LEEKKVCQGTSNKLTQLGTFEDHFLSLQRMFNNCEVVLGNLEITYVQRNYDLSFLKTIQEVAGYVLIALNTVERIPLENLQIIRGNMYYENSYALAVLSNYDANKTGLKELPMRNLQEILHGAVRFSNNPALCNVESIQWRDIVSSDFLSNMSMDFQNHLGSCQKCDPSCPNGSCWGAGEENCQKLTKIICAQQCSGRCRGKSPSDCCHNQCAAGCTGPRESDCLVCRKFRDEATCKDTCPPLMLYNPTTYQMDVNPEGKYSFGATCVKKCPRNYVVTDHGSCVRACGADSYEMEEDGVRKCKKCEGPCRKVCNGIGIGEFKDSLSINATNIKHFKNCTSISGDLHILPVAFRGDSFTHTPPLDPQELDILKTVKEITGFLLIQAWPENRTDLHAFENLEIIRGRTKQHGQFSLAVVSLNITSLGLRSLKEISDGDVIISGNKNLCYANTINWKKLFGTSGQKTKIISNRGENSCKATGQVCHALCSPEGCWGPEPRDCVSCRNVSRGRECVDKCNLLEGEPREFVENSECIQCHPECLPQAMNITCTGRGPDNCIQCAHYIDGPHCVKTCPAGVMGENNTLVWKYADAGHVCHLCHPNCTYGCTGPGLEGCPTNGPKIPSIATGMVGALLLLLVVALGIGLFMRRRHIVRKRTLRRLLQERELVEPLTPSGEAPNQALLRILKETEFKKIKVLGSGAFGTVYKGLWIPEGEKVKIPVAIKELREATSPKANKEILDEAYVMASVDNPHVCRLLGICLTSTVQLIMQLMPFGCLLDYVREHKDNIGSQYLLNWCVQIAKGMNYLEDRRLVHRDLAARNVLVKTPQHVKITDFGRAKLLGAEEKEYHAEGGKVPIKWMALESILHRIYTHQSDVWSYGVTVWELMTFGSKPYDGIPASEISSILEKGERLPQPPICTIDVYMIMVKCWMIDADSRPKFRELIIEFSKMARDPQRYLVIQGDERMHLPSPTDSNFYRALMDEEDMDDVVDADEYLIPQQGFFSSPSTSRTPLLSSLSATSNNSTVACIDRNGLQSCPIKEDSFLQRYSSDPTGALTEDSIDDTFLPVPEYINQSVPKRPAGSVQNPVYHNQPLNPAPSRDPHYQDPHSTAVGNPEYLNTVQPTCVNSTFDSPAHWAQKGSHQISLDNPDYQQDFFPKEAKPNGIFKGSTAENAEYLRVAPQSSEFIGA
Description: An expression vector, pLVX-IRES puro (Clontech) coding for human EGFR L858R and T790M double mutation, was transfected into HEK293 cells by the Trans-Lentiviral ORF Packaging System (Thermo Scientific), to produce virus encoding EGFR L858R and T790M double mutations. […] Ba/F3 cells expressing EGFR L858R and T790M double mutation (named Ba/F3-EGFR L858R/T790M) can proliferate in the absence of IL-3. The anti-proliferative activity of compounds was determined as follows: BaF3-EGFR L858R/T790M cells seeded in 96 well plates (2500 cells/well) were treated with test compound (dissolved in DMSO) at a series of concentrations (4-fold dilution, top concentration: 10,000 nM). The plates were incubated for 72 h in a 37° C. incubator with 5% CO2, and the number of viable cells in each well were measured indirectly by CellTiter 96® Aqueous One Solution Cell Proliferation Assay (Promega; this assay is a colorimetric method for determining the number of viable cells through measurement of their metabolic activity by detection of enzymatic conversion of tetrazolium salts into blue formazan derivatives). Reagent (20 μL) was added into each well, and the plates were returned to the incubator for 2 h. The absorbance in each well was then measured at 490 nm using an Envision plate reader (Perkin Elmer).

Some results are limits rather than exact numbers.

Chain of human EGFR exon 20 insertion NPG (H773_V774insNPG) (P00533 with tags, fused parts or gaps INS773NPG limits assumed): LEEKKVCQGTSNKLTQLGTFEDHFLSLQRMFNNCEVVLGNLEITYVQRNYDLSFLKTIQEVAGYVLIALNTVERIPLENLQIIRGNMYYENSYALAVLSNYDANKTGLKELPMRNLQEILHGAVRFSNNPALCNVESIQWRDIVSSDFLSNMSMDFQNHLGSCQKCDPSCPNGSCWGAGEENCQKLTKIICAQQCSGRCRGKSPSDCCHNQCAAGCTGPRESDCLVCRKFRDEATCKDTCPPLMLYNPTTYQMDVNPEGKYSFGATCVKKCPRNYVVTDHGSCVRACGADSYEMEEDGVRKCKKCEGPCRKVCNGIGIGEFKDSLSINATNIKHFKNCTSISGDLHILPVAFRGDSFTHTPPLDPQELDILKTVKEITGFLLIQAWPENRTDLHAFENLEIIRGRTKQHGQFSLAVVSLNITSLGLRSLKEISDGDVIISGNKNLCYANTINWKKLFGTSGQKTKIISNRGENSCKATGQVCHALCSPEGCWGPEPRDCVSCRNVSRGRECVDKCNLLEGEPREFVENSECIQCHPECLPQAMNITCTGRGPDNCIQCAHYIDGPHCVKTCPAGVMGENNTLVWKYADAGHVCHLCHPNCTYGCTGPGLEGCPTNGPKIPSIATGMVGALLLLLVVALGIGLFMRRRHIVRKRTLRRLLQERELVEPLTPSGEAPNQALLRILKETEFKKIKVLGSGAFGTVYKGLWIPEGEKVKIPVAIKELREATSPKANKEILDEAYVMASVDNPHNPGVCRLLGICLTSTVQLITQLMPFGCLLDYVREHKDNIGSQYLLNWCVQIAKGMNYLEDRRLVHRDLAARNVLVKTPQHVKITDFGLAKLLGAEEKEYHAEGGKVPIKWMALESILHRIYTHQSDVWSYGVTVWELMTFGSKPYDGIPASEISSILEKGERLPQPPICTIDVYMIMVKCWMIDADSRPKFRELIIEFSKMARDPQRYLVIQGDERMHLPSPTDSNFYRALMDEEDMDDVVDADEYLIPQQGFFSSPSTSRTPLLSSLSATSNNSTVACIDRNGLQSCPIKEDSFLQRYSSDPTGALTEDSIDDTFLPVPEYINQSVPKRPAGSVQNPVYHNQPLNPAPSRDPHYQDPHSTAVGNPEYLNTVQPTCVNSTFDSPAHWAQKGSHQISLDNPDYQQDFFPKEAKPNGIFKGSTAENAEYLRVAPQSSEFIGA
Chain of human EGFR exon 20 insertion ASV (V769_D770insASV) (P00533 other isoform, or with tags, fused parts or gaps ins ASV behind 769): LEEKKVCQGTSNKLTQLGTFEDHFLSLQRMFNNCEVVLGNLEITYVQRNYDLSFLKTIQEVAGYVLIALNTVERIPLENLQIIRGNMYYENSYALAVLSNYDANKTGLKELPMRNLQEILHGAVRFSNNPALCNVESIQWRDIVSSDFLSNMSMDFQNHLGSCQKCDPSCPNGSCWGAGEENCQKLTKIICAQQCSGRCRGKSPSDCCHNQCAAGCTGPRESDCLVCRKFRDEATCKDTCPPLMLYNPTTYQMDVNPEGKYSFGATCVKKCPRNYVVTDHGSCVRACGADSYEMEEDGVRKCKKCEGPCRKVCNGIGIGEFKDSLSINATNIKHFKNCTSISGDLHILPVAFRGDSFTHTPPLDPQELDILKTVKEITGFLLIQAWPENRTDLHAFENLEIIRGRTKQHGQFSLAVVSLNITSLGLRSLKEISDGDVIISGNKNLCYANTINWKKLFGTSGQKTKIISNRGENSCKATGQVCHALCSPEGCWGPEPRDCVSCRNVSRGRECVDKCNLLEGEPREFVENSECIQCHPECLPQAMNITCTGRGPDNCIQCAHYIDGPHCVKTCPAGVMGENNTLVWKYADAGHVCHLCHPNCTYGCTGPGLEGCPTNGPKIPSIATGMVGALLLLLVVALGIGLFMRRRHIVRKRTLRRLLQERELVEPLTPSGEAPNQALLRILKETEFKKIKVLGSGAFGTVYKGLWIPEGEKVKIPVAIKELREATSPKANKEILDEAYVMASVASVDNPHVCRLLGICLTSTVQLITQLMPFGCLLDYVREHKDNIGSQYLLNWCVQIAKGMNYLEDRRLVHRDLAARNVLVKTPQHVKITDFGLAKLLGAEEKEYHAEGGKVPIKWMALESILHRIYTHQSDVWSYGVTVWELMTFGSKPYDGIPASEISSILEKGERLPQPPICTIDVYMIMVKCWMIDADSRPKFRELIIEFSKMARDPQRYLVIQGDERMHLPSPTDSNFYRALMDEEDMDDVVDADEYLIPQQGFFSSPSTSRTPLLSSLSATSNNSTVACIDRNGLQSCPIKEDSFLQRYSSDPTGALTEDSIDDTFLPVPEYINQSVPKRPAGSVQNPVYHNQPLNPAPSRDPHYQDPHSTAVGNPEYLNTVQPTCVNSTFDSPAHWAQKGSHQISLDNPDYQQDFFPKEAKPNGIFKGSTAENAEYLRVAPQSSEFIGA
Chain of Her2 exon 20 YVMA insertion (A775_G776ins YVMA) (P04626 other isoform, or with tags, fused parts or gaps ins YVMA behind 775): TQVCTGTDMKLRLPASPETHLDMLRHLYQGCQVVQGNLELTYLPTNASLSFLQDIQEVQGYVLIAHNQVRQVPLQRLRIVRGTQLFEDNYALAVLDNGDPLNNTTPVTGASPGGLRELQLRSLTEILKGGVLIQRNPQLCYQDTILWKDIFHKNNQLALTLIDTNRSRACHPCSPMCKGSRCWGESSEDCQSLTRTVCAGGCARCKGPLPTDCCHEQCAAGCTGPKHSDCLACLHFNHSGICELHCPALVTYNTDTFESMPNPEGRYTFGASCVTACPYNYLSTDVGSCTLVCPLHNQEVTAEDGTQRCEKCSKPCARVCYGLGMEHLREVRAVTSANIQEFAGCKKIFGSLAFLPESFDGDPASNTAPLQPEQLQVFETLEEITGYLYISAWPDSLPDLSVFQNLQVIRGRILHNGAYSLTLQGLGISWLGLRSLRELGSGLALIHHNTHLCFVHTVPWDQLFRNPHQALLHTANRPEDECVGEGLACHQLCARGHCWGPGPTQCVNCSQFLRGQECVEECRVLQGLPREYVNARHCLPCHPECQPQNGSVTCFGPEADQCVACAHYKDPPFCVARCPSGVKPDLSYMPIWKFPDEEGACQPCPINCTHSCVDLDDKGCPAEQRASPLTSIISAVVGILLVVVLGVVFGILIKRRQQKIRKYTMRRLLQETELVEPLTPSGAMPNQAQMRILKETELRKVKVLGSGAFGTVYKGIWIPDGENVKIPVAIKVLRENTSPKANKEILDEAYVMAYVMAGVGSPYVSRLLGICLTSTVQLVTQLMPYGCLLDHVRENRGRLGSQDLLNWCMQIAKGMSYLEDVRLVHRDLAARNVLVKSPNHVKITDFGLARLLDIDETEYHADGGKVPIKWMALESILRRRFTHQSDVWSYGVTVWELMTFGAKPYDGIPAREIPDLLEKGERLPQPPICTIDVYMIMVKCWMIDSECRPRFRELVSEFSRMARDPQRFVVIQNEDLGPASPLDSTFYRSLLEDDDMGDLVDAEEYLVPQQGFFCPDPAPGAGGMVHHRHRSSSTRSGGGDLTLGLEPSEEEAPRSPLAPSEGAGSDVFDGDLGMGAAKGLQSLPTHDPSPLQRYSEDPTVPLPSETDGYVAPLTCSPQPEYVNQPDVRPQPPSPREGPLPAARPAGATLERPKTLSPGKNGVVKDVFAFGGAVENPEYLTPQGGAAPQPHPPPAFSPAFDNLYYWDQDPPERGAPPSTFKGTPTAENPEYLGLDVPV

`C=CC(=O)Nc1cc(Nc2ncc(C(=O)OC(C)C)c(-c3cn(C)c4ccccc34)n2)c(OC)cc1N(C)CCN(C)C` [Example 10, isopropyl 2-((5-acrylamido-4-((2-(dimethylamino)ethyl)(methyl)amino)-2-methoxyphenyl)amino)-4-(1-methyl-1H-indol-3-yl)pyrimidine-5-carboxylate]: the IC50 in assay [1], in assay [2], in assay [3], in assay [4] and in assay [5] was under 100 nM in each case.
Turning to `C=CC(=O)Nc1cc(Nc2ncc(Cl)c(-c3c[nH]c4ccccc34)n2)c(OC)cc1N(C)CCN(C)C` [Example 56, N-(5-((5-chloro-4-(1H-indol-3-yl)pyrimidin-2-yl)amino)-2-((2-(dimethylamino)ethyl)(methyl)amino)-4-methoxyphenyl)acrylamide], the IC50 in assay [1], in assay [2], in assay [3], in assay [4] and in assay [5] was under 100 nM throughout.
For `C=CC(=O)Nc1cc(Nc2ncc(C(=O)OC(C)C)c(-c3cn(C)c4ccccc34)n2)c(OC)cc1N(C)CCNC` [Example 58, isopropyl 2-((5-acrylamido-2-methoxy-4-(methyl(2-(methylamino)ethyl)-amino)phenyl)amino)-4-(1-methyl-1H-indol-3-yl)pyrimidine-5-carboxylate], the IC50 in assay [1], in assay [2], in assay [3], in assay [4] and in assay [5] was under 100 nM throughout.
As for `C=CC(=O)Nc1cc(Nc2ncc(C(=O)OC(C)C)c(-c3cn(C)c4ccccc34)n2)c(OC)cc1N(C)CC1CCCN1C` (stereo not shown) [Example 17, isopropyl 2-((5-acrylamido-2-methoxy-4-(methyl((1-methylpyrrolidin-2-yl)methyl)amino)phenyl)amino)-4-(1-methyl-1H-indol-3-yl)pyrimidine-5-carboxylate], the IC50 in assay [1], in assay [2], in assay [3], in assay [4] and in assay [5] was under 100 nM throughout.
Turning to `C=CC(=O)Nc1cc(Nc2ncc(Cl)c(-c3cnn4ccccc34)n2)c(OC)cc1N(C)CCN(C)C` [Example 52, N-(5-((5-chloro-4-(pyrazolo[1,5-a]pyridin-3-yl)pyrimidin-2-yl)amino)-2-((2-(dimethylamino)ethyl)-(methyl)amino)-4-methoxyphenyl)-acrylamide], the IC50 in assay [1] was under 100 nM; in assay [2], under 100 nM; in assay [3] it was under 100 nM; in assay [4], 100 to 500 nM; in assay [5] it was under 100 nM.

For the origin of these results see patent US10227342B2 (ARIAD PHARMACEUTICALS, INC., priority 2014, dated 2019).
